Experimental data taken from ChEMBL document CHEMBL3525964 (Drug Metab Dispos, 2012).

Legend:
Plasma [1] = assay: Drug level in human plasma treated with [14C}LY2452473 at 15 mg, po after 2 hrs administered as single dose by HPLC analysis; format: ADME, organism-based; details: in vivo
Plasma [2] = assay: Drug level in human plasma treated with [14C}LY2452473 at 15 mg, po after 4 hrs administered as single dose by HPLC analysis; format: ADME, organism-based; details: in vivo
Plasma [3] = assay: Drug level in plasma of human treated with [14C}LY2452473 at 15 mg, po administered as single dose by LC-MS/MS method; format: ADME, organism-based; details: in vivo
Plasma [4] = assay: Drug level in human plasma treated with [14C}LY2452473 at 15 mg, po after 48 hrs administered as single dose by HPLC analysis; format: ADME, organism-based; details: in vivo
Plasma [5] = assay: Drug level in human plasma treated with [14C}LY2452473 at 15 mg, po after 8 hrs administered as single dose by HPLC analysis; format: ADME, organism-based; details: in vivo
Plasma [6] = assay: Drug level in human plasma treated with [14C}LY2452473 at 15 mg, po after 4 hrs administered as single dose by HPLC analysis relative to total radioactivity; format: ADME, organism-based; details: in vivo
Plasma [7] = assay: Drug level in human plasma treated with [14C}LY2452473 at 15 mg, po after 1 hr administered as single dose by HPLC analysis; format: ADME, organism-based; details: in vivo
Plasma [8] = assay: Drug level in human plasma treated with [14C}LY2452473 at 15 mg, po after 24 hrs administered as single dose by HPLC analysis; format: ADME, organism-based; details: in vivo
[9] = Drug level in urine of human treated with [14C}LY2452473 at 15 mg, po administered as single dose by LC-MS/MS method; format: ADME, organism-based; details: in vivo
[10] = Drug level in feces of human treated with [14C}LY2452473 at 15 mg, po administered as single dose by LC-MS/MS method; format: ADME, organism-based; details: in vivo
[11] = Total drug excretion in human treated with [14C}LY2452473 at 15 mg, po administered as single dose by HPLC analysis; format: ADME, organism-based; details: in vivo, read-out: Drug excretion
[12] = Drug excretion in urine of human treated with [14C}LY2452473 at 15 mg, po administered as single dose by HPLC analysis; format: ADME, organism-based; details: read-out: Drug excretion
Homo sapiens [13] = assay: Tlast in human assessed as total radioactivity at 15 mg, po administered as single dose by liquid scintillation counting method; format: ADME, organism-based; details: in vivo
[14] = Drug metabolism in human feces assessed as isopropyl N-[(2S,3S)-7-cyano-3-hydroxy-4-(2-pyridylmethyl)-2,3-dihydro-1H-cyclopenta[b]indol-2-yl]carbamate formation at 15 mg, po administered as single dose by LC-MS/MS method; format: ADME, organism-based; details: in vivo
Homo sapiens [15] = assay: Tmax in human assessed as total radioactivity at 15 mg, po administered as single dose by liquid scintillation counting method; format: ADME, organism-based; details: in vivo
Homo sapiens [16] = assay: AUC (0 to infinity) in human assessed as total radioactivity at 15 mg, po administered as single dose by liquid scintillation counting method; format: ADME, organism-based, Plasma; parameters: dose 15 mg, route oral, time infinity; details: in vivo
[17] = Drug metabolism in human feces assessed as isopropyl(2S)-7-cyano-3a,8b-dihydroxy-4-(pyridin-2-ylmethyl)-1,2,3,3a,4,8b-hexahydrocyclopenta[b]indol-2-ylcarbamate formation at 15 mg, po administered as single dose by LC-MS/MS method; format: ADME, organism-based; details: in vivo
Plasma [18] = assay: Drug metabolism in human plasma assessed as N-[(2S)-7-cyano-4-(2-pyridylmethyl)-2,3-dihydro-1H-cyclopenta[b]indol-2-yl]acetamide formation at 15 mg, po administered as single dose by LC-MS/MS method; format: ADME, organism-based; details: in vivo
[19] = Drug recovery in human urine at 15 mg, po administered as single dose after 0 to 312 hrs by liquid scintillation counting method; format: ADME, organism-based; details: in vivo
Homo sapiens [20] = assay: AUC (0 to time) in human assessed as total radioactivity at 15 mg, po administered as single dose by liquid scintillation counting method; format: ADME, organism-based, Plasma; details: in vivo
Plasma [21] = assay: Drug metabolism in human plasma assessed as (2S)-2-amino-4-(2-pyridylmethyl)-2,3-dihydro-1H-cyclopenta[b]indole-7-carbonitrile formation at 15 mg, po administered as single dose by LC-MS/MS method; format: ADME, organism-based; details: in vivo
Plasma [22] = assay: Drug level in human plasma at 15 mg, po after 24 hrs administered as single dose by HPLC analysis; format: ADME, organism-based; details: in vivo
[23] = Drug metabolism in human feces assessed as [(1R)-2-hydroxy-1-methyl-ethyl]N-[(2S)-7-cyano-4-(2-pyridylmethyl)-2,3-dihydro-1H-cyclopenta[b]indol-2-yl]carbamate formation at 15 mg, po administered as single dose by LC-MS/MS method; format: ADME, organism-based; details: in vivo
[24] = Drug metabolism in human feces assessed as (2S)-2-amino-4-(2-pyridylmethyl)-2,3-dihydro-1H-cyclopenta[b]indole-7-carbonitrile formation at 15 mg, po administered as single dose by LC-MS/MS method; format: ADME, organism-based; details: in vivo
Plasma [25] = assay: Drug metabolism in human plasma assessed as LY2452473 formation at 15 mg, po administered as single dose by LC-MS/MS method; format: ADME, organism-based; details: in vivo
Plasma [26] = assay: Drug metabolism in human plasma assessed as [(1R)-2-hydroxy-1-methyl-ethyl]N-[(2S)-7-cyano-4-(2-pyridylmethyl)-2,3-dihydro-1H-cyclopenta[b]indol-2-yl]carbamate formation at 15 mg, po administered as single dose by LC-MS/MS method; format: ADME, organism-based; details: in vivo
Plasma [27] = assay: Drug metabolism in human plasma assessed as isopropyl N-[(2S,3S)-7-cyano-3-hydroxy-4-(2-pyridylmethyl)-2,3-dihydro-1H-cyclopenta[b]indol-2-yl]carbamate formation at 15 mg, po administered as single dose by LC-MS/MS method; format: ADME, organism-based; details: in vivo
[28] = Drug metabolism in human urine assessed as (2S)-2-amino-4-(2-pyridylmethyl)-2,3-dihydro-1H-cyclopenta[b]indole-7-carbonitrile formation at 15 mg, po administered as single dose by LC-MS/MS method; format: ADME, organism-based; details: in vivo
Plasma [29] = assay: Drug level in human plasma at 15 mg, po after 48 hrs administered as single dose by HPLC analysis; format: ADME, organism-based; details: in vivo, pooled result: one value given for 5 cell lines, strains, targets or settings
[30] = Drug metabolism in human urine assessed as isopropyl(2S)-7-cyano-3a,8b-dihydroxy-4-(pyridin-2-ylmethyl)-1,2,3,3a,4,8b-hexahydrocyclopenta[b]indol-2-ylcarbamate formation at 15 mg, po administered as single dose by LC-MS/MS method; format: ADME, organism-based; details: in vivo
Homo sapiens [31] = assay: Elimination half life in human assessed as total radioactivity at 15 mg, po administered as single dose by liquid scintillation counting method; format: ADME, organism-based; details: in vivo
[32] = Drug metabolism in human urine assessed as [(1R)-2-hydroxy-1-methyl-ethyl]N-[(2S)-7-cyano-4-(2-pyridylmethyl)-2,3-dihydro-1H-cyclopenta[b]indol-2-yl]carbamate formation at 15 mg, po administered as single dose by LC-MS/MS method; format: ADME, organism-based; details: in vivo
[33] = Drug metabolism in human feces assessed as N-[(2S)-7-cyano-4-(2-pyridylmethyl)-2,3-dihydro-1H-cyclopenta[b]indol-2-yl]acetamide formation at 15 mg, po administered as single dose by LC-MS/MS method; format: ADME, organism-based; details: in vivo
[34] = Drug metabolism in human urine assessed as LY2452473 formation at 15 mg, po administered as single dose by LC-MS/MS method; format: ADME, organism-based; details: in vivo
[35] = Drug metabolism in human urine assessed as N-[(2S)-7-cyano-4-(2-pyridylmethyl)-2,3-dihydro-1H-cyclopenta[b]indol-2-yl]acetamide formation at 15 mg, po administered as single dose by LC-MS/MS method; format: ADME, organism-based; details: in vivo
Homo sapiens [36] = assay: Drug recovery in human at 15 mg, po administered as single dose after 0 to 312 hrs by liquid scintillation counting method; format: ADME, organism-based; details: in vivo
[37] = Drug metabolism in human urine assessed as isopropyl N-[(2S,3S)-7-cyano-3-hydroxy-4-(2-pyridylmethyl)-2,3-dihydro-1H-cyclopenta[b]indol-2-yl]carbamate formation at 15 mg, po administered as single dose by LC-MS/MS method; format: ADME, organism-based; details: in vivo
[38] = Drug metabolism in human feces assessed as LY2452473 formation at 15 mg, po administered as single dose by LC-MS/MS method; format: ADME, organism-based; details: in vivo
[39] = Drug recovery in human feces at 15 mg, po administered as single dose after 0 to 312 hrs by liquid scintillation counting method; format: ADME, organism-based; details: in vivo
Plasma [40] = assay: Drug metabolism in human plasma assessed as isopropyl(2S)-7-cyano-3a,8b-dihydroxy-4-(pyridin-2-ylmethyl)-1,2,3,3a,4,8b-hexahydrocyclopenta[b]indol-2-ylcarbamate formation at 15 mg, po administered as single dose by LC-MS/MS method; format: ADME, organism-based; details: in vivo

SMILES: C[C@H](CO)OC(=O)N[C@H]1Cc2c(n(Cc3ccccn3)c3ccc(C#N)cc23)C1
- Drug uptake (Plasma [1]): 0.89%
- Drug uptake (Plasma [2]): 2.2%
- Drug metabolism (Plasma [3]): metabolite_detected
- Drug uptake (Plasma [4]): 0%
- Drug uptake (Plasma [5]): 6.94%
- Drug uptake (Plasma [6]): 2.3%
- Drug uptake (Plasma [7]): 0%
- Drug uptake (Plasma [8]): 0%
- Drug metabolism [9]: metabolite_detected
- Drug metabolism [10]: metabolite_detected

SMILES: N#Cc1ccc2c(c1)c1c(n2Cc2ccccn2)C[C@@H](N)C1
- Drug metabolism (Plasma [3]): metabolite_detected
- dose excreted [11]: 3.39%
- Drug metabolism [9]: metabolite_detected
- dose excreted [12]: 3.39%
- Drug metabolism [10]: metabolite_detected

SMILES: CC(C)OC(=O)N[C@H]1CC2(O)c3cc(C#N)ccc3N(Cc3ccccn3)C2(O)C1 (some centres not stated)
- Drug metabolism (Plasma [3]): metabolite_detected
- Drug metabolism [9]: metabolite_detected
- Drug metabolism [10]: metabolite_detected

SMILES: C[C@@H](CO)OC(=O)N[C@H]1Cc2c(n(Cc3ccccn3)c3ccc(C#N)cc23)C1
- Drug uptake (Plasma [1]): 0%
- Drug uptake (Plasma [2]): 0.97%
- Drug uptake (Plasma [4]): 0%
- Drug uptake (Plasma [5]): 0%
- Drug uptake (Plasma [7]): 0%
- Drug uptake (Plasma [8]): 0%

SMILES: CC(=O)N[C@H]1Cc2c(n(Cc3ccccn3)c3ccc(C#N)cc23)C1
- Drug uptake (Plasma [1]): 0%
- Drug uptake (Plasma [2]): 1.74%
- Drug metabolism (Plasma [3]): metabolite_detected
- Drug uptake (Plasma [4]): 38.68%
- Drug uptake (Plasma [5]): 10.48%
- Drug uptake (Plasma [6]): 20.6%
- Drug uptake (Plasma [7]): 0%
- Drug uptake (Plasma [8]): 28.48%
- Drug metabolism [9]: metabolite_detected
- Drug metabolism [10]: metabolite_detected

SMILES: CC(C)OC(=O)N[C@H]1Cc2c(n(Cc3ccccn3)c3ccc(C#N)cc23)[C@H]1O
- Drug uptake (Plasma [1]): 22.58%
- Drug uptake (Plasma [2]): 24.24%
- Drug metabolism (Plasma [3]): metabolite_detected
- Drug uptake (Plasma [4]): 30.05%
- Drug uptake (Plasma [5]): 36.62%
- Drug uptake (Plasma [6]): 34.7%
- Drug uptake (Plasma [7]): 21.9%
- Drug uptake (Plasma [8]): 37.11%
- Drug metabolism [9]: metabolite_detected
- Drug metabolism [10]: metabolite_detected

SMILES: CC(C)OC(=O)N[C@H]1Cc2c(n(Cc3ccccn3)c3ccc([14C]#N)cc23)C1
- Tlast (Homo sapiens [13]): 204 h
- Drug metabolism [14]: metabolite_detected
- Tmax (Homo sapiens [15]): 3 h
- AUC (Homo sapiens [16]): 7750 ng·h/mL
- Drug metabolism [17]: metabolite_detected
- Drug metabolism (Plasma [18]): metabolite_detected
- Drug recovery [19]: 47.9%
- AUCt (Homo sapiens [20]): 7210 ng·h/mL
- Drug metabolism (Plasma [21]): metabolite_detected
- Drug uptake (Plasma [22]): 94.41%
- Drug metabolism [23]: metabolite_detected
- Drug metabolism [24]: metabolite_detected
- Drug metabolism (Plasma [25]): metabolite_detected
- Drug metabolism (Plasma [26]): metabolite_detected
- Drug metabolism (Plasma [27]): metabolite_detected
- Drug metabolism [28]: metabolite_detected
- Drug uptake (Plasma [29]): 96.4%
- Drug metabolism [30]: metabolite_detected
- beta t1/2 (Homo sapiens [31]): 51 h
- Drug metabolism [32]: metabolite_detected
- Drug metabolism [33]: metabolite_detected
- Drug metabolism [34]: metabolite_detected
- Drug metabolism [35]: metabolite_detected
- Drug recovery (Homo sapiens [36]): 94.5%
- Drug metabolism [37]: metabolite_detected
- Drug metabolism [38]: metabolite_detected
- Drug recovery [39]: 46.6%
- Drug metabolism (Plasma [40]): metabolite_detected
